{"source": "patent US20240279227A1", "about": "“FUSED HETEROCYCLIC DERIVATIVES” (Janssen Sciences Ireland Unlimited Company, priority 2021, published 2024)", "key": {"[1]": {"system": "HBV", "test": "Anti-HBV activity in HepG2.117 cell line (intracellular HBV DNA, real-time PCR)", "type": "cell-based, hepatitis B virus", "settings": "HepG2.117 cells, HBV replication induced, 3 days of treatment, intracellular HBV DNA by real-time PCR", "experimental": "The anti HBV activity was measured using the HepG2.117 cell line, a stable, inducibly HBV producing cell line, which replicates HBV in the absence of doxycycline (Tet-off system). The HepG2 cell line is available from ATCCR under number HB-8065. Transfection of the HepG2 cell line can be as described in Sun and Nassal 2006 Journal of Hepatology 45 (2006) 636-645 “Stable HepG2-and Huh7-based human hepatoma cell lines for efficient regulated expression of infectious hepatitis B virus”.\nFor the antiviral assay, HBV replication was induced, followed by a treatment with serially diluted compound in 96-well plates. After 3 days of treatment, the antiviral activity was determined by quantification of intracellular HBV DNA using real-time PCR and an HBV specific primer set and probe."}, "[2]": {"test": "Cytotoxicity, ATPlite Luminescence Assay", "type": "cell-based, human", "settings": "human, HepG2 or HepG2.117 cells, 3-days incubation unless marked with *, ATPlite viability", "experimental": "Cytotoxicity of the compounds was tested using HepG2 or HepG2.117 cells, incubated for 3 or 4 days in the presence of compounds. The viability of the cells was assessed using the PERKIN ELMER ATPlite Luminescence Assay System.”"}, "[3]": {"test": "Human liver microsome stability", "type": "in vitro ADME", "settings": "human, pooled human liver microsomes, pH 7.4, pooled human liver microsomes 0.5 mg/mL, 1 μM compound, NADPH 1 mM, pH 7.4, 37° C., 0-60 min; read-out: HLM Metabolism t1/2", "experimental": "Pooled human liver microsomes (0.5 mg/mL) was pre-incubated with 1 μM test compounds or control compounds (verapamil, warfarin and cerivastatin) in 0.1 M phosphate buffer pH 7.4 containing 1 mM MgCl2 at 37° C. The final concentration of DMSO and acetonitrile are 0.05% and 0.2%, respectively. All incubations are performed singularly for each compound. NADPH was added to initiate the reaction with the final concentration of 1 mM and the final incubation volume of 400 μL.\nAt 6 time points (0, 5, 10, 20, 40 and 60 min) reactions were stopped by the removal of 50 μL of the incubation mixture into plates containing acetonitrile at a of 1:3 (v:v). The plates were centrifuged at 3000 rpm for 10 min at 4° C. to precipitate the protein. Following protein precipitation, the sample supernatants were combined in cassettes of up to 8 compounds. The internal standard was added (1:1 supernatant to internal standard solution) and samples were analyzed using standard LC-MS conditions.\nFrom a plot of ln peak area ratio (compound peak area/internal standard peak area) against time, the gradient of the line is determined. Subsequently, half-life is calculated using the equations below: […]"}, "[4]": {"settings": "Hepatitis B virus, HepG2.117, 72 h"}}}
{"smiles": "CNC(=O)[C@@H]1CN(C(C)c2ccc(C(C)(C)O)cn2)C(=O)c2c3c(nn21)C[C@@H](C)N(C(=O)c1ccc(Cl)c(Cl)c1)C3", "note": "(single isomer, unassigned) [Compound 39A, (3R,7S)-2-(3,4-Dichlorobenzoyl)-9-((R*)-1-(5-(2-hydroxypropan-2-yl)pyridin-2-yl)ethyl)-N,3-dimethyl-10-oxo-1,2,3,4,7,8,9,10-octahydropyrido[4′,3′:3,4]pyrazolo[1,5-a]pyrazine-7-carboxamide]", "values": [{"measurement": "EC50", "setting": "[1]", "value": 1.68, "unit": "µM"}, {"measurement": "CC50", "setting": "[2]", "value": "> 50", "unit": "µM"}, {"measurement": "half-life at 1 μM", "setting": "[3]", "value": "> 3", "unit": "h"}]}
{"smiles": "CNC(=O)[C@@H]1CN(C(C)c2ccc(C3CC3)nc2)C(=O)c2c3c(nn21)C[C@@H](C)N(C(=O)c1ccc(Cl)c(Cl)c1)C3", "note": "(single isomer, unassigned) [Compound 32A, (3R,7S)-9-((R*)-1-(6-Cyclopropylpyridin-3-yl)ethyl)-2-(3,4-dichlorobenzoyl)-N,3-dimethyl-10-oxo-1,2,3,4,7,8,9,10-octahydropyrido[4′,3′:3,4]pyrazolo[1,5-a]pyrazine-7-carboxamide]", "values": [{"measurement": "EC50", "setting": "[1]", "value": 0.055, "unit": "µM"}, {"measurement": "CC50", "setting": "[2]", "value": "> 50", "unit": "µM"}, {"measurement": "half-life at 1 μM", "setting": "[3]", "value": 2.12, "unit": "h"}]}
{"smiles": "CNC(=O)[C@@H]1CN(Cc2ccc(OC(F)F)cc2)C(=O)c2c3c(nn21)C[C@@H](C)N(C(=O)c1ccc(Cl)c(Cl)c1)C3", "note": "[Compound 17, (3R,7S)-2-(3,4-Dichlorobenzoyl)-9-(4-(difluoromethoxy)benzyl)-N,3-dimethyl-10-oxo-1,2,3,4,7,8,9,10-octahydropyrido[4′,3′:3,4]pyrazolo[1,5-a]pyrazine-7-carboxamide]", "values": [{"measurement": "EC50", "setting": "[1]; [4]", "value": 0.036, "unit": "µM"}, {"measurement": "CC50", "setting": "[2]", "value": 39.1, "unit": "µM"}, {"measurement": "half-life at 1 μM", "setting": "[3]", "value": "> 3", "unit": "h"}]}
{"smiles": "CNC(=O)[C@@H]1CN(C(C)c2ccnc(C(F)(F)F)c2)C(=O)c2c3c(nn21)C[C@@H](C)N(C(=O)c1ccc(Cl)c(Cl)c1)C3", "note": "(single isomer, unassigned) [Compound 9B, (3R,7S)-2-(3,4-Dichlorobenzoyl)-N,3-dimethyl-10-oxo-9-((S*)-1-(2-(trifluoromethyl)pyridin-4-yl)ethyl)-1,2,3,4,7,8,9,10-octahydropyrido[4′,3′:3,4]pyrazolo[1,5-a]pyrazine-7-carboxamide]", "values": [{"measurement": "EC50", "setting": "[1]; [4]", "value": 0.061, "unit": "µM"}, {"measurement": "CC50", "setting": "[2]", "value": "> 50", "unit": "µM"}, {"measurement": "half-life at 1 μM", "setting": "[3]", "value": "> 3", "unit": "h"}]}
{"smiles": "CNC(=O)[C@@H]1CN([C@H](C)c2ccc(S(C)(=O)=O)cc2)C(=O)c2c3c(nn21)C[C@@H](C)N(C(=O)c1ccc(Cl)c(Cl)c1)C3", "note": "[Compound 18A, (3R,7S)-2-(3,4-Dichlorobenzoyl)-N,3-dimethyl-9-((R)-1-(4-(methylsulfonyl)phenyl)ethyl)-10-oxo-1,2,3,4,7,8,9,10-octahydropyrido[4′,3′:3,4]pyrazolo[1,5-a]pyrazine-7-carboxamide]", "values": [{"measurement": "EC50", "setting": "[1]; [4]", "value": 0.597, "unit": "µM"}, {"measurement": "CC50", "setting": "[2]", "value": "> 50", "unit": "µM"}, {"measurement": "half-life at 1 μM", "setting": "[3]", "value": "> 3", "unit": "h"}]}
{"smiles": "CNC(=O)[C@@H]1CN(C(C)c2ccc(N3CCCC3=O)nc2)C(=O)c2c3c(nn21)C[C@@H](C)N(C(=O)c1ccc(Cl)c(Cl)c1)C3", "note": "(single isomer, unassigned) [Compound 34A, (3R,7S)-2-(3,4-Dichlorobenzoyl)-N,3-dimethyl-10-oxo-9-((R*)-1-(6-(2-oxopyrrolidin-1-yl)pyridin-3-yl)ethyl)-1,2,3,4,7,8,9,10-octahydropyrido[4′,3′:3,4]pyrazolo[1,5-a]pyrazine-7-carboxamide]", "values": [{"measurement": "EC50", "setting": "[1]; [4]", "value": 0.38, "unit": "µM"}, {"measurement": "CC50", "setting": "[2]", "value": "> 50", "unit": "µM"}, {"measurement": "half-life at 1 μM", "setting": "[3]", "value": 1.83, "unit": "h"}]}
{"smiles": "CNC(=O)[C@@H]1CN(C(C)c2ccc(OC(F)F)c(F)c2)C(=O)c2c3c(nn21)C[C@@H](C)N(C(=O)c1ccc(Cl)c(Cl)c1)C3", "note": "(single isomer, unassigned) [Compound 24A, (3R,7S)-2-(3,4-Dichlorobenzoyl)-9-((R*)-1-(4-(difluoromethoxy)-3-fluorophenyl)ethyl)-N,3-dimethyl-10-oxo-1,2,3,4,7,8,9,10-octahydropyrido[4′,3′:3,4]pyrazolo[1,5-a]pyrazine-7-carboxamide]", "values": [{"measurement": "EC50", "setting": "[1]", "value": 0.054, "unit": "µM"}, {"measurement": "CC50", "setting": "[2]", "value": 20.6, "unit": "µM"}, {"measurement": "half-life at 1 μM", "setting": "[3]", "value": "> 3", "unit": "h"}]}
{"smiles": "CNC(=O)[C@@H]1CN(Cc2ccc(OC(F)F)cc2)C(=O)c2c3c(nn21)C[C@@H](C)N(C(=O)c1ccc(Cl)c(C(F)(F)F)c1)C3", "note": "[Compound 28, (3R,7S)-2-(4-Chloro-3-(trifluoromethyl)benzoyl)-9-(4-(difluoromethoxy)benzyl)-N,3-dimethyl-10-oxo-1,2,3,4,7,8,9,10-octahydropyrido[4′,3′:3,4]pyrazolo[1,5-a]pyrazine-7-carboxamide]", "values": [{"measurement": "EC50", "setting": "[1]; [4]", "value": 0.019, "unit": "µM"}, {"measurement": "CC50", "setting": "[2]", "value": 29.5, "unit": "µM"}, {"measurement": "half-life at 1 μM", "setting": "[3]", "value": "> 3", "unit": "h"}]}
{"smiles": "CNC(=O)[C@@H]1CN([C@H](C)c2cnc(C(F)(F)F)nc2)C(=O)c2c3c(nn21)C[C@@H](C)N(C(=O)c1ccc(Cl)c(Cl)c1)C3", "note": "[Compound 4A, (3R,7S)-2-(3,4-Dichlorobenzoyl)-N,3-dimethyl-10-oxo-9-((R)-1-(2-(trifluoromethyl)pyrimidin-5-yl)ethyl)-1,2,3,4,7,8,9,10-octahydropyrido[4′,3′:3,4]pyrazolo[1,5-a]pyrazine-7-carboxamide]", "values": [{"measurement": "EC50", "setting": "[1]; [4]", "value": 2.44, "unit": "µM"}, {"measurement": "CC50", "setting": "[2]", "value": "> 50", "unit": "µM"}, {"measurement": "half-life at 1 μM", "setting": "[3]", "value": "> 3", "unit": "h"}]}
{"smiles": "C[C@@H]1Cc2nn3c(c2CN1C(=O)c1ccc(Cl)c(Cl)c1)C(=O)N([C@@H](C)c1ccc(OC(F)F)cc1)CC3", "note": "[Ref 2, reference compound]", "values": [{"measurement": "EC50", "setting": "[1]; [4]", "value": 0.026, "unit": "µM"}, {"measurement": "CC50", "setting": "[2]", "value": 19.8, "unit": "µM"}, {"measurement": "half-life at 1 μM", "setting": "[3]", "value": 0.117, "unit": "h"}]}
{"smiles": "CNC(=O)[C@@H]1CN(C(C)c2ccc(C#N)cc2)C(=O)c2c3c(nn21)C[C@@H](C)N(C(=O)c1ccc(Cl)c(Cl)c1)C3", "note": "(single isomer, unassigned) [Compound 23A, (3R,7S)-9-((R*)-1-(4-Cyanophenyl)ethyl)-2-(3,4-dichlorobenzoyl)-N,3-dimethyl-10-oxo-1,2,3,4,7,8,9,10-octahydropyrido[4′,3′:3,4]pyrazolo[1,5-a]pyrazine-7-carboxamide]", "values": [{"measurement": "EC50", "setting": "[1]", "value": 0.06, "unit": "µM"}, {"measurement": "CC50", "setting": "[2]", "value": "> 50", "unit": "µM"}, {"measurement": "half-life at 1 μM", "setting": "[3]", "value": "> 3", "unit": "h"}]}
{"smiles": "CC(c1ccc(C(F)(F)F)nc1)N1C[C@@H](C(=O)N(C)C)n2nc3c(c2C1=O)CN(C(=O)c1ccc(Cl)c(Cl)c1)[C@H](C)C3", "note": "(single isomer, unassigned) [Compound 8B, (3R,7S)-2-(3,4-dichlorobenzoyl)-N,N,3-trimethyl-10-oxo-9-((S*)-1-(6-(trifluoromethyl)pyridin-3-yl)ethyl)-1,2,3,4,7,8,9,10-octahydropyrido[4′,3′:3,4]pyrazolo[1,5-a]pyrazine-7-carboxamide]", "values": [{"measurement": "EC50", "setting": "[1]; [4]", "value": 0.071, "unit": "µM"}, {"measurement": "CC50", "setting": "[2]", "value": "> 50", "unit": "µM"}, {"measurement": "half-life at 1 μM", "setting": "[3]", "value": "> 3", "unit": "h"}]}
{"smiles": "CNC(=O)[C@@H]1CN([C@@H](C)c2ccc(C(F)(F)F)nc2)C(=O)c2c3c(nn21)C[C@@H](C)N(C(=O)c1ccc(Cl)c(C(F)(F)F)c1)C3", "note": "[Compound 15B, (3R,7S)-2-(4-chloro-3-(trifluoromethyl)benzoyl)-N,3-dimethyl-10-oxo-9-((S)-1-(6-(trifluoromethyl)pyridin-3-yl)ethyl)-1,2,3,4,7,8,9,10-octahydropyrido[4′,3′:3,4]pyrazolo[1,5-a]pyrazine-7-carboxamide]", "values": [{"measurement": "EC50", "setting": "[1]; [4]", "value": 0.029, "unit": "µM"}, {"measurement": "CC50", "setting": "[2]", "value": 29.8, "unit": "µM"}, {"measurement": "half-life at 1 μM", "setting": "[3]", "value": "> 3", "unit": "h"}]}
{"smiles": "CNC(=O)[C@@H]1CN(C(C)c2cccc(Cl)n2)C(=O)c2c3c(nn21)C[C@@H](C)N(C(=O)c1ccc(Cl)c(Cl)c1)C3", "note": "(single isomer, unassigned) [Compound 38A, (3R,7S)-9-((R*)-1-(6-Chloropyridin-2-yl)ethyl)-2-(3,4-dichlorobenzoyl)-N,3-dimethyl-10-oxo-1,2,3,4,7,8,9,10-octahydropyrido[4′,3′:3,4]pyrazolo[1,5-a]pyrazine-7-carboxamide]", "values": [{"measurement": "EC50", "setting": "[1]; [4]", "value": 0.068, "unit": "µM"}, {"measurement": "CC50", "setting": "[2]", "value": "> 50", "unit": "µM"}, {"measurement": "half-life at 1 μM", "setting": "[3]", "value": "> 3", "unit": "h"}]}
{"smiles": "CNC(=O)[C@@H]1CN([C@H](C)c2ccc(OC(F)F)cc2)C(=O)c2c3c(nn21)C[C@@H](C)N(C(=O)c1ccc(Cl)c(Cl)c1)C3", "note": "[Compound 16A, (3R,7S)-2-(3,4-dichlorobenzoyl)-9-((R)-1-(4-(difluoromethoxy)phenyl)ethyl)-N,3-dimethyl-10-oxo-1,2,3,4,7,8,9,10-octahydropyrido[4′,3′:3,4]pyrazolo[1,5-a]pyrazine-7-carboxamide]", "values": [{"measurement": "EC50", "setting": "[1]; [4]", "value": 0.021, "unit": "µM"}, {"measurement": "CC50", "setting": "[2]", "value": 40.4, "unit": "µM"}, {"measurement": "half-life at 1 μM", "setting": "[3]", "value": "> 3", "unit": "h"}]}
